Results reported in ChEMBL document CHEMBL1201862, “PubChem BioAssay data set” (2004).
Activity calls are given as the source filed them.

What was measured:
[1] = molecular target: T1, Heat shock factor protein 1 (Mus musculus, UniProt P38532); experiment: decrease of HSF1-responsive luciferase luminescence – cell-based, NIH3T3, dose retest, confirmation (AID 2382); type: functional;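 also: NIH3T3 fibroblasts with HSF1-driven luciferase reporter stressed by proteasome inhibitor MG132; luminescence from HSF1-driven luciferase expression after 8 hours of MG132 stress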
T1 sequence (P38532 whole entry): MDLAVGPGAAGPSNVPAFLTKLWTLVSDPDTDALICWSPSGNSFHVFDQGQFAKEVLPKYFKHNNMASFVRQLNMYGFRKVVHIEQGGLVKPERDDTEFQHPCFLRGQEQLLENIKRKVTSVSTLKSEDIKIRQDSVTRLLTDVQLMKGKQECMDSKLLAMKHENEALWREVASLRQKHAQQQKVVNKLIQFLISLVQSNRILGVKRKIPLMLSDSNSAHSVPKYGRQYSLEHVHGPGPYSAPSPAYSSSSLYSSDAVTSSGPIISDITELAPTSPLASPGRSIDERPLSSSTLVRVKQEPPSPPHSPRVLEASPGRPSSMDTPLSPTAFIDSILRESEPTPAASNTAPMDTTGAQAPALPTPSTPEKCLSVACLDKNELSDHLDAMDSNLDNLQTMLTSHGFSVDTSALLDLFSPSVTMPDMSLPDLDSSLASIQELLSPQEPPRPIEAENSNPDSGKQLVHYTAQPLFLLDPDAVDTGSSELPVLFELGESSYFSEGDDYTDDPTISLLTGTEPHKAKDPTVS

[2] = viability of uninfected HEp-2 cells – cell-based, HTS, cytotoxicity control for RSV inhibitor project, dose response (AID 2410); type: functional; settings: human respiratory syncytial virus
[3] = Trypanosoma cruzi growth suppression in host cells – NIH3T3 host cells, beta-gal luminescence, confirmation (AID 2044); type: functional, cell-based;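 also: intracellular parasites grown in NIH/3T3 mouse fibroblasts as host cells; luminescent beta-galactosidase reporter signal from transgenic T. cruzi replicating inside host cells; inhibitors lower the luminescence signal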
[4] = NIH3T3 cell viability loss – ATP luminescence, mouse fibroblasts, counter-screen, dose response (AID 2010); type: functional, cell-based;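 also: cells exposed to compound for about 90 hours before reading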
Cytochrome P450 3A4 = Cytochrome P450 3A4 (Homo sapiens, UniProt P08684);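 also: CYP3A4 tested as one member of a cytochrome P450 panel screen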
Cytochrome P450 3A4, sequence (P08684 whole entry): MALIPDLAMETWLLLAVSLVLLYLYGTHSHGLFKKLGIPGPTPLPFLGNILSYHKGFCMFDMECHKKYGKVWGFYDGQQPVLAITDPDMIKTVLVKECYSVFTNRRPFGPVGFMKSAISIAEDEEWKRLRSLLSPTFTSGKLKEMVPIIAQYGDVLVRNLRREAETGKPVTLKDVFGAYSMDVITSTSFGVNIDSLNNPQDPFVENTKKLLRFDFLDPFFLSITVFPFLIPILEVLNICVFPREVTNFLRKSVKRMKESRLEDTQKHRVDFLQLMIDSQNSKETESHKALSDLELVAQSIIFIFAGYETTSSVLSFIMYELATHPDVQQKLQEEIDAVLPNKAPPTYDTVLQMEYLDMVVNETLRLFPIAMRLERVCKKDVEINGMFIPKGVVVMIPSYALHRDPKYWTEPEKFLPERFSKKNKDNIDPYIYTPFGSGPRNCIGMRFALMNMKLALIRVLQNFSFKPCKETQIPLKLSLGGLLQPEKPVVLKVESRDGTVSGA

Cytochrome P450 2C19 = Cytochrome P450 2C19 (Homo sapiens, UniProt P33261); experiment: Cytochrome panel assay with activity outcomes. Panel member name: p450-cyp2c19 Compounds with AC50 equal or less than 10 uM are considered active; type: functional
Cytochrome P450 2C19, sequence (P33261 whole entry): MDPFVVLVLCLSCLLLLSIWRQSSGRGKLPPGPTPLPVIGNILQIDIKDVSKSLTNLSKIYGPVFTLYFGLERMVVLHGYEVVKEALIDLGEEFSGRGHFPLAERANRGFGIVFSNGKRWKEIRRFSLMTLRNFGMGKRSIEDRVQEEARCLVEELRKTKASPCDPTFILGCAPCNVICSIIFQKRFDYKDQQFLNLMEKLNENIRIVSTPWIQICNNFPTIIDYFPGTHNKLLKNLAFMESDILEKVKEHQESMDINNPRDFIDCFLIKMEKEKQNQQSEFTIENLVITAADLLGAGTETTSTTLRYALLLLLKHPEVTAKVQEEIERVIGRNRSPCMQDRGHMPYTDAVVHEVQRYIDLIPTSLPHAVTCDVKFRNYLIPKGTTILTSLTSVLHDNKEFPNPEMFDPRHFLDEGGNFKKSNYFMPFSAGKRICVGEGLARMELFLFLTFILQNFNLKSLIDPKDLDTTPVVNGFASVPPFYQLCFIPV

[5] = molecular target: T2, Corticotropin-releasing factor receptor 2/Corticotropin-releasing factor-binding protein (Homo sapiens, UniProt P24387+Q13324); experiment: activators of CRF receptor 2 with binding protein – uHTS hits, confirmation (AID 602473); type: functional; settings: read-out: EC50_Mean
T2 sequence (Q13324 whole entry): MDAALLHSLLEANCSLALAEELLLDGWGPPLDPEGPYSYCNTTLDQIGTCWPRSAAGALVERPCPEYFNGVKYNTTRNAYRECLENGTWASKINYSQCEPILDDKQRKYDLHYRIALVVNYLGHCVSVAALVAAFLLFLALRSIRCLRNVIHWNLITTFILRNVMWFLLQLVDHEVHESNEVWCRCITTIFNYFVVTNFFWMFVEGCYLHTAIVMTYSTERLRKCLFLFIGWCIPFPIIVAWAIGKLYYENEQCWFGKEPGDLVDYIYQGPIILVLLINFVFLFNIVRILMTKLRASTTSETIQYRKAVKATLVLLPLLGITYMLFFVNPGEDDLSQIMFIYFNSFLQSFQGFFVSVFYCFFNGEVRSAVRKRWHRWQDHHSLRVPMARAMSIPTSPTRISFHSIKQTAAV
T2 sequence (P24387 whole entry): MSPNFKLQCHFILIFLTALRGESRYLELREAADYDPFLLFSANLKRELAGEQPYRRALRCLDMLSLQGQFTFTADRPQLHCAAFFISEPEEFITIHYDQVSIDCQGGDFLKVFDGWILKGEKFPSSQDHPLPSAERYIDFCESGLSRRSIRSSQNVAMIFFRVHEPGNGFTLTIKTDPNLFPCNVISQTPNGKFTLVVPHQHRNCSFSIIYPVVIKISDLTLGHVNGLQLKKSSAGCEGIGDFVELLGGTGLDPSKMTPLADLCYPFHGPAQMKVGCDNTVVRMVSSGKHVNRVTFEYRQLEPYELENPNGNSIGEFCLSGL

With `CC1CCN(c2nc3ccc(C(=O)N4CCN(Cc5ccc6c(c5)OCO6)CC4)cc3s2)CC1` as the molecule, how does the EC50 [1] read?
The EC50 was 16.5 µM (active).

For `CC(C)OC(=O)c1ccc(N2CCN(c3ccc(F)cc3)CC2)nc1`, which CC50 [2] is on record?
Its CC50 is 14.8 µM (active).

For `CCn1c(NCc2cc(Br)ccc2NS(=O)(=O)c2ccc(C)cc2)nc2ccccc21`, which EC50 [3] is on record?
Its EC50 is 2.61 µM (active).

What about the EC50 [4] of the same molecule?
The EC50 was > 60 µM (not active).

With `COC(=O)Nc1nc(-c2cc(Cl)ccc2Cl)cs1` as the molecule, how does the EC50 [3] read?
The EC50 was 0.572 µM (active).

And the EC50 [4]?
Its EC50 is > 60 µM (not active).

For `CN(Cc1ccco1)c1nc(-c2ccccc2C(F)(F)F)nc2ccccc12`, which AC50 (Cytochrome P450 3A4) is on record?
Its AC50 is 12.6 µM (inconclusive).

For `NS(=O)(=O)c1cccc(NC(=O)CNC(=O)CC23CC4CC(CC(C4)C2)C3)c1`, which EC50 [1] is on record?
Its EC50 is > 195 µM (not active).

With `CCn1nc(NC(=O)COC)c2cc3cccc(C)c3nc21` as the molecule, how does the CC50 [2] read?
Its CC50 is > 50 µM (active).

Which CC50 [2] does the source give for `COC(=O)c1ccc(NC(S)=Nc2ccccn2)cc1` here?
The CC50 was 41.6 µM (active).

Which AC50 (Cytochrome P450 2C19; read-out: AC50) does the source give for `CCCCCSc1nncc(O)n1` here?
Its AC50 is 39.8 µM (inconclusive).

For `Cc1cc(C)cc(N(CC(=O)Nc2ccc(Br)cc2)S(=O)(=O)c2c(C)nc(O)nc2O)c1`, which EC50 [1] is on record?
Its EC50 is > 195 µM (not active).

Which EC50 [3] does the source give for `Cc1c(CN2CCC(CO)(Cc3ccccc3)CC2)c2ccccc2n1C` here?
Its EC50 is 2.4 µM (active).

What about the EC50 [4] of the same molecule?
The EC50 was 9.85 µM (active).

Which CC50 [2] does the source give for `COc1ccccc1NC(=O)N(Cc1ccco1)Cc1cc2cc(C)cc(C)c2nc1O` here?
The CC50 was 3.83 µM (active).

For `CC1(C)CC(=O)C([C@H]2C3=C(CC(C)(C)CC3=O)Oc3ccccc32)C(=O)C1`, which AC50 (Cytochrome P450 3A4) is on record?
Its AC50 is 15.8 µM (inconclusive).

Which AC50 (Cytochrome P450 3A4) does the source give for `CO[C@@H]1/C=C\O[C@]2(C)Oc3c(C)c(O)c4c(O)c(cc(O)c4c3C2=O)NC(=O)/C(C)=C\C=C/[C@H](C)[C@@H](O)[C@H](C)[C@H](O)[C@H](C)[C@H](OC(C)=O)[C@@H]1C` here?
The AC50 was 3.98 µM (inconclusive).

Which EC50 [3] does the source give for `CCn1nc(C)c(NC(=O)/C=C/c2ccc(OC)c(COc3ccc(Cl)cc3Br)c2)c1C` here?
Its EC50 is 0.736 µM (active).

What about the EC50 [4] of the same molecule?
Its EC50 is > 60 µM (not active).

For `CCOc1cc2c(cc1OCC)C(c1ccc(OC)cc1)N(c1ccccc1)C(=O)C2` (stereo unspecified), which EC50 [1] is on record?
Its EC50 is > 195 µM (not active).

For `COc1cc(SC)ccc1C(=O)NCCc1c[nH]c2ccccc12`, which CC50 [2] is on record?
Its CC50 is 19.9 µM (active).

Which results are given for `CCN1CCc2c(C#N)c(NCc3ccccc3)nc(N(CC)CC)c2C1`?
EC50 [3]: 0.426 µM (active); EC50 [4]: > 15 µM (not active)

With `Cn1c(=O)c(-c2cc(F)cc(F)c2)nc2cncnc21` as the molecule, how does the AC50 (Cytochrome P450 3A4) read?
Its AC50 is 1.26 µM (inconclusive).

For `N#C/C(=C/C=C/c1ccccc1)C(=O)Nc1ccccc1`, which EC50 [3] is on record?
The EC50 was 8.82 µM (active).

What about the EC50 [4] of the same molecule?
Its EC50 is > 60 µM (not active).

Which CC50 [2] does the source give for `C=C1CCC[C@]2(C)C[C@H]3OC(=O)C(CN(C)CC(OC)OC)[C@H]3CC12` (stereo partly specified) here?
The CC50 was 11.4 µM (active).

For `COc1ccc(C2C(C(=O)c3ccc4c(c3)CC(C)O4)=C(O)C(=O)N2CCN2CCOCC2)cc1` (stereo unspecified), which AC50 (Cytochrome P450 3A4) is on record?
Its AC50 is 28.2 µM (inconclusive).

What about the AC50 (Cytochrome P450 2C19) of the same molecule?
The AC50 was “inconclusive”.

With `CCc1ccccc1OCC(=O)Nc1ccc2c(c1)OCCO2` as the molecule, how does the CC50 [2] read?
The CC50 was 35.6 µM (active).

Which AC50 (Cytochrome P450 2C19; read-out: AC50) does the source give for `Cc1noc(C)c1-c1nccc(N2CCOCC2)n1` here?
The AC50 was 10 µM (inconclusive).

With `Cc1ccn2cc(-c3cccc(NC(=O)c4cccs4)c3)nc2c1` as the molecule, how does the CC50 [2] read?
The CC50 was 26.1 µM (active).

Which CC50 [2] does the source give for `Brc1ccc(C2=Nn3cnnc3SC2)cc1` here?
The CC50 was 27.9 µM (active).

With `CC(=O)Nc1ccc(-c2csc(NCCc3ccccc3)n2)cc1` as the molecule, how does the CC50 [2] read?
Its CC50 is 41.3 µM (active).

For `COc1ccc(S(=O)(=O)N2CCCCCC2)cc1C(=O)N(C)Cc1ccc(Cl)cc1Cl`, which EC50 [5] is on record?
Its EC50 is 5 µM (active).

With `Cc1ccccc1C(=O)Oc1ccc(Br)cc1C(=S)N1CCCC1` as the molecule, how does the AC50 (Cytochrome P450 3A4) read?
Its AC50 is 8.91 µM (inconclusive).
